≈ marks a conversion by molar mass, not a printed value. Where “and” joins values, the source holds several entries; their conditions need not be identical. Identical values can stand only once. Values belong to the compound of their own block, whether it stands above or below them.
Experiments:
Test in all cases: ≥ marks a high value that may be exact or a test limit, other limits are often not marked, values filed in µg/mL are converted to µM
[1] = tested on: Staphylococcus aureus 127/08
[2] = tested on: Staphylococcus aureus V4180
[3] = tested on: Staphylococcus aureus NCTC 8325
[4] = tested on: Escherichia coli ATCC 25922
[5] = tested on: Staphylococcus aureus S908
[6] = tested on: Pseudomonas aeruginosa ATCC 27853
[7] = tested on: Staphylococcus aureus 274/08
[8] = tested on: Klebsiella pneumoniae ATCC 700603
[9] = tested on: Staphylococcus aureus 145/08
[10] = tested on: Escherichia coli ATCC 25726
[11] = tested on: Staphylococcus aureus T4/6
[12] = tested on: Candida albicans ATCC 90028
[13] = tested on: Acinetobacter baumannii I NM8
[14] = tested on: Staphylococcus aureus ATCC 9144
Bacillus megaterium Bm11 = tested on: Bacillus megaterium Bm11
Cryptococcus neoformans = tested on: Cryptococcus neoformans
Staphylococcus aureus = tested on: Staphylococcus aureus
[15] = tested on: Staphylococcus epidermidis ATCC 12228
[16] = tested on: Staphylococcus aureus Cowan 1
[17] = tested on: Escherichia coli DH5alpha
[18] = tested on: Bacillus subtilis ATCC 6633
Enterococcus faecium = tested on: Enterococcus faecium
Escherichia coli ML-35 = tested on: Escherichia coli ML-35
Candida albicans = tested on: Candida albicans
Escherichia coli D21 = tested on: Escherichia coli D21
[19] = tested on: Escherichia coli O18:K1:H7 Bort
[20] = tested on: Escherichia coli ATCC 10536
[21] = tested on: Staphylococcus aureus ATCC 25923
[22] = tested on: Serratia marcescens ATCC 8100
Serratia marcescens = tested on: Serratia marcescens
[23] = tested on: Salmonella enterica subsp. enterica serovar Typhimurium ATCC 14028
Streptococcus agalactiae = tested on: Streptococcus agalactiae
Beauveria bassiana = tested on: Beauveria bassiana
Alternaria brassicicola = tested on: Alternaria brassicicola
Neurospora crassa = tested on: Neurospora crassa
Trichoderma viride = tested on: Trichoderma viride
Fusarium oxysporum = tested on: Fusarium oxysporum
Aspergillus fumigatus = tested on: Aspergillus fumigatus
Fusarium haematococcum = tested on: Fusarium haematococcum
[24] = tested on: Trichophyton mentagrophytes
Fusarium culmorum = tested on: Fusarium culmorum
Botrytis cinerea = tested on: Botrytis cinerea

MIC [1]: 5 µM (≈ 9.08 µg/mL)
MIC [2]: 5 µM (≈ 9.08 µg/mL)
MIC [3]: ≥ 80 µM
MIC [4]: 50 µM (≈ 90.8 µg/mL)
MIC [5]: 5 µM (≈ 9.08 µg/mL)
MIC [6]: 50 µM (≈ 90.8 µg/mL)
MIC [7]: 5 µM (≈ 9.08 µg/mL)
MIC [8]: 50 µM (≈ 90.8 µg/mL)
MIC [9]: 5 µM (≈ 9.08 µg/mL)
MIC [10]: ≥ 50 µM
MIC [11]: 5 µM (≈ 9.08 µg/mL)
MIC [12]: ≥ 100 µM
MIC [13]: 6 µM (≈ 10.9 µg/mL)
SMILES: CC(C)C[C@H](NC(=O)[C@H](CC(C)C)NC(=O)[C@H](CC(N)=O)NC(=O)[C@H](CO)NC(=O)CNC(=O)[C@@H](NC(=O)[C@H](CCCCN)NC(=O)[C@H](CC(C)C)NC(=O)CNC(=O)[C@@H](NC(=O)[C@H](CCCCN)NC(=O)[C@H](CC(C)C)NC(=O)[C@H](CC(C)C)NC(=O)[C@H](CO)NC(=O)CNC(=O)[C@H](CC(C)C)NC(=O)[C@H](Cc1ccccc1)NC(=O)CN)[C@@H](C)O)C(C)C)C(N)=O [GFLGSLLKTGLKVGSNLL]

MIC [14]: 3 µM (≈ 9.39 µg/mL)
MIC (Bacillus megaterium Bm11): 2 µM (≈ 6.26 µg/mL)
MIC (Cryptococcus neoformans): 4 µM (≈ 12.5 µg/mL)
MIC (Staphylococcus aureus): 2.83 µM (≈ 8.86 µg/mL)
MIC [15]: 1 µM (≈ 3.13 µg/mL)
MIC [16]: 1 µM (≈ 3.13 µg/mL)
MIC [17]: 2.4 µM (≈ 7.51 µg/mL)
MIC [18]: 1.6 µM (≈ 5.01 µg/mL)
MIC [4]: 2 µM (≈ 6.26 µg/mL)
MIC (Enterococcus faecium): 2.83 µM (≈ 8.86 µg/mL)
MIC (Escherichia coli ML-35): 2 µM (≈ 6.26 µg/mL)
MIC [6]: 2 µM and > 1 µM
MIC (Candida albicans): 8 µM (≈ 25 µg/mL)
MIC (Escherichia coli D21): 0.5 µM (≈ 1.57 µg/mL)
MIC [19]: 2 µM (≈ 6.26 µg/mL)
MIC [20]: 2.6 µM (≈ 8.14 µg/mL)
MIC [21]: 2 µM (≈ 6.26 µg/mL)
MIC [22]: 2 µM (≈ 6.26 µg/mL)
MIC (Serratia marcescens): 8 µM (≈ 25 µg/mL)
MIC [23]: 1 µM (≈ 3.13 µg/mL)
MIC (Streptococcus agalactiae): 2.83 µM (≈ 8.86 µg/mL)
SMILES: CC[C@H](C)[C@H](NC(=O)[C@H](CCCN=C(N)N)NC(=O)[C@@H](NC(=O)[C@@H](NC(=O)[C@@H]1CCCN1C(=O)[C@@H](NC(=O)[C@@H](NC(=O)[C@@H](NC(=O)[C@@H]1CCCN1C(=O)CNC(=O)[C@H](Cc1ccc(O)cc1)NC(=O)[C@H](CCCCN)NC(=O)[C@H](CCCCN)NC(=O)[C@H](Cc1c[nH]c2ccccc12)NC(=O)[C@H](C)NC(=O)[C@H](CCCN=C(N)N)NC(=O)[C@H](CC(C)C)NC(=O)[C@@H](NC(=O)[C@H](CCCCN)NC(=O)[C@H](CCCN=C(N)N)NC(=O)CNC(=O)[C@H](CC(C)C)NC(=O)[C@H](CO)NC(=O)[C@H](CCCN=C(N)N)NC(=O)[C@H](CC(C)C)NC(=O)CNC(=O)CN)[C@@H](C)CC)[C@@H](C)CC)[C@@H](C)CC)C(C)C)[C@@H](C)CC)[C@@H](C)CC)C(=O)NCC(N)=O [GGLRSLGRKILRAWKKYGPIIVPIIRIG]

MIC (Beauveria bassiana): ≥ 100 µM
MIC (Alternaria brassicicola): 6.25 µM (≈ 17.2 µg/mL)
MIC (Neurospora crassa): ≥ 50 µM
MIC (Trichoderma viride): 6.25 µM (≈ 17.2 µg/mL)
MIC (Fusarium oxysporum): 12.5 µM (≈ 34.4 µg/mL)
MIC (Aspergillus fumigatus): ≥ 100 µM
MIC (Fusarium haematococcum): 6.25 µM (≈ 17.2 µg/mL)
MIC [24]: ≥ 100 µM
MIC (Fusarium culmorum): 12.5 µM (≈ 34.4 µg/mL)
MIC (Botrytis cinerea): ≥ 100 µM
SMILES: CC[C@H](C)[C@H](NC(=O)[C@H](Cc1cnc[nH]1)NC(=O)[C@H](CCC(=O)O)NC(=O)CNC(=O)[C@H](Cc1cnc[nH]1)NC(=O)[C@H](CC(N)=O)NC(=O)[C@H](Cc1ccccc1)NC(=O)[C@@H](NC(=O)[C@H](CCCCN)NC(=O)[C@@H](NC(=O)[C@H](CCC(N)=O)NC(=O)[C@@H](NC(=O)[C@H](Cc1cnc[nH]1)NC(=O)CNC(=O)[C@H](Cc1ccccc1)NC(=O)[C@H](CC(N)=O)NC(=O)[C@@H]1CCCN1C(=O)[C@H](CC(C)C)NC(=O)[C@H](CC(=O)O)NC(=O)[C@H](CCC(=O)O)NC(=O)[C@@H](N)Cc1ccccc1)[C@@H](C)CC)C(C)C)C(C)C)C(=O)N[C@@H](Cc1cnc[nH]1)C(=O)N[C@@H](Cc1cnc[nH]1)C(=O)O [FEDLPNFGHIQVKVFNHGEHIHH]

— DBAASP
